Consider four compounds from ChEMBL document CHEMBL2074140, “Identification and characterization of a prostaglandin transporter” (Science, 1995).

This test addresses Solute carrier organic anion transporter family member 2A1 (Rattus norvegicus, UniProt Q00910). The test is described as follows: TP_TRANSPORTER: inhibition of PGF2alpha uptake in PGT-expressing HeLa cells. It is filed as functional, cell-based.

SMILES strings stand for the structures.

`CC1(C)C(/C=C/C=C/C=C/C=C2\N(CCCCS(=O)(=O)O)c3ccc4ccccc4c3C2(C)C)=[N+](CCCCS(=O)(=O)[O-])c2ccc3ccccc3c21` [INDOCYANINE GREEN] showed an inhibition constant Ki of 35 µM. `O=C1OC(c2ccc(O)c(S(=O)(=O)O)c2)(c2ccc(O)c(S(=O)(=O)O)c2)c2c(Br)c(Br)c(Br)c(Br)c21` [SULFOBROMOPHTHALEIN SODIUM] displayed a Ki of 5.8 µM. Take `Cc1c(C2(c3cc(Br)c(O)c(Br)c3C)OS(=O)(=O)c3ccccc32)cc(Br)c(O)c1Br` [BROMCRESOL GREEN]: the affinity corresponds to a Ki of 3.6 µM. `NS(=O)(=O)c1cc(C(=O)O)c(NCc2ccco2)cc1Cl` [FUROSEMIDE] yielded a Ki of 47 µM.
